Test results: ChEMBL document CHEMBL1132601, “Design, synthesis, and structure-activity relationships of acetylene-based histamine H3 receptor antagonists” (J Med Chem, 1999)

Target: Histamine H3 receptor (Rattus norvegicus, UniProt Q9QYN8)
Assay: Binding affinity at histamine H3 receptor in rat cortical membranes by [3H]Nalpha-methylhistamine displacement.
Format: cell membranes

Chain of Histamine H3 receptor (Q9QYN8 whole entry): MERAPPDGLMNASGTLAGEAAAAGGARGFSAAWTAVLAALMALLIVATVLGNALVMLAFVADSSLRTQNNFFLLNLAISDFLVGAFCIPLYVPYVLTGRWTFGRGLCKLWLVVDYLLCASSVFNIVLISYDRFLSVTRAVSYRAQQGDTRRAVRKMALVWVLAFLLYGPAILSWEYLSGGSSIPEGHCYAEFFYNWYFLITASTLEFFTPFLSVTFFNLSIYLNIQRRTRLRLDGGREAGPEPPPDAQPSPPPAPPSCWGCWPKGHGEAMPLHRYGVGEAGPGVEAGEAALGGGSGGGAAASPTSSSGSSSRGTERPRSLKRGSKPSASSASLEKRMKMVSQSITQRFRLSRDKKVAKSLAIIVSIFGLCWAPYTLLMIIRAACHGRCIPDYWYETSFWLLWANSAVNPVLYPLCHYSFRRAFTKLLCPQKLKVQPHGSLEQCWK

Row | SMILES | Ki [nM]
1 | CCCC#CC1CC1c1c[nH]cn1 (stereo not drawn) | 5.1
2 | CC(C)(C)CCC#C[C@@H]1C[C@H]1c1c[nH]cn1 [CIPRALISANT] | 0.12
3 | C(#CCCC1CCCC1)CCc1c[nH]cn1 | 0.9
